The values below come from patent US9988400B2 (Genentech, Inc., priority 2013, dated 2018).

T1 sequence (Q12879 23-1464, other chains not shown): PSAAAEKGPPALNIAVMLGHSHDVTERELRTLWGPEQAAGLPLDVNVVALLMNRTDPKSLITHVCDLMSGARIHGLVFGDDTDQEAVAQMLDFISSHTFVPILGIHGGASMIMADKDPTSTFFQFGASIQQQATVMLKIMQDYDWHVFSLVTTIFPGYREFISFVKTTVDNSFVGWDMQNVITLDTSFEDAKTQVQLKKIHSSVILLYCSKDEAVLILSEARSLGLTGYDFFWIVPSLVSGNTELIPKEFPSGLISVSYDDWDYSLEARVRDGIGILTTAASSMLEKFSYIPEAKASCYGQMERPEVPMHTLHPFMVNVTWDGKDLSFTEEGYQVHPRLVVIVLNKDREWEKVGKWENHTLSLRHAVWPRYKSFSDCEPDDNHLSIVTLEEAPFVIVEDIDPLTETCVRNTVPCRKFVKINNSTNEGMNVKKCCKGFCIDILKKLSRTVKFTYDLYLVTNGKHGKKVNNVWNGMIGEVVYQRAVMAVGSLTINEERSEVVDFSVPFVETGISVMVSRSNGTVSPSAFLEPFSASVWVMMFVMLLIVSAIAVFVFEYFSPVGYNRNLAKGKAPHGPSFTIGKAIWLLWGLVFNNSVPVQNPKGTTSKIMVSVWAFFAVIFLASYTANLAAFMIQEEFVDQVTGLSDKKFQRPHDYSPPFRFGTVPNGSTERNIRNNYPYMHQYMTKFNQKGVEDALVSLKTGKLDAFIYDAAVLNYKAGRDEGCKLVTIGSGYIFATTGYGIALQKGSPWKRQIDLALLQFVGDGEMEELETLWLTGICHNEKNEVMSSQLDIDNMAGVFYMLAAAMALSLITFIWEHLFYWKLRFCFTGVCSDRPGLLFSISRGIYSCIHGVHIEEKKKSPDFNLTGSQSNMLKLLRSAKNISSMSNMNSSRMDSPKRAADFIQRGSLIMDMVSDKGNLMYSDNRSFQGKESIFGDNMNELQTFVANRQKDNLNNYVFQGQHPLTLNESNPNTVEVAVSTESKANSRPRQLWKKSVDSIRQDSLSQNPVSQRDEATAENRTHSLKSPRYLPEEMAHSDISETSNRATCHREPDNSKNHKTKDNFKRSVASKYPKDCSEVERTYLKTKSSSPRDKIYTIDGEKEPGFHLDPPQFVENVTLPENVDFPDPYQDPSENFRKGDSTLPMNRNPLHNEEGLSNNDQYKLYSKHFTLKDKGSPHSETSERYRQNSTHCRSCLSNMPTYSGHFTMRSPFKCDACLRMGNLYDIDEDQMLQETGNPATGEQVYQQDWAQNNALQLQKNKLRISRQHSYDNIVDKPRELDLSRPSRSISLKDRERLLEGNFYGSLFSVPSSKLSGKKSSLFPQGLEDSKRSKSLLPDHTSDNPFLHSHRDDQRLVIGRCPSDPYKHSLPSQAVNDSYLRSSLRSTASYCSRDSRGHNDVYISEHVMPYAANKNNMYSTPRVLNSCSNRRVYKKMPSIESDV

This assay has as its target T1, HEK cells stably transfected with tetracycline inducible hNR1 and hNR2A (Homo sapiens, UniProt Q05586+Q12879).
T1 construct: expressed in transfected cells; host or cells: HEK cells, stably transfected, tetracycline/doxycycline inducible
The experiment in a line: Assay 1: Cell-Based Assay, cytosolic calcium response to positive allosteric modulators (with 30 μM glycine and 300 nM L-glutamate, EC30). The settings on record: Table 3; cytosolic calcium response, with 30 μM glycine and 300 nM L-glutamate (EC30); — = no plateau was reached. The procedure, abridged:
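Cells induced 24 h with 7.5 μg mL^−1 doxycycline plus 500 μM (+)-ketamine, loaded 60 min at 37 °C with calcium dye in Mg-free HBSS (1.8 mM Ca, probenecid, 10 μM (+)-ketamine, pH 7.15). Peak RFU over 5 min after compound addition, scaled to 100 μM L-glutamate (100%) and 0 μM (0%); four-parameter Hill fit for EC50, max % if no plateau.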
Consider `CCNC(=O)c1c(OC)sc2nc(Cc3cccc(C(F)(F)F)c3F)cc(=O)n12` [compound 91, N-Ethyl-7-[[2-fluoro-3-(trifluoromethyl)phenyl]methyl]-2-methoxy-5-oxo-thiazolo[3,2-a]pyrimidine-3-carboxamide], for which the EC50 (usually the concentration giving half of the maximal effect) turned out to be 1030 nM.
As for `O=c1cc(Cc2cccc(C(F)(F)F)c2F)nc2sc3c(n12)C(CO)CC3` (stereo not shown) [compound 92], the EC50 is 47100 nM.
Turning to `CCc1sc2nc(Cc3cccc(C(F)(F)F)c3F)cc(=O)n2c1C(=O)NC` [compound 93, 2-ethyl-7-[[2-fluoro-3-(trifluoromethyl)phenyl]methyl]-N-methyl-5-oxo-thiazolo[3,2-a]pyrimidine-3-carboxamide], the EC50 was 1830 nM.
As to `N#CC1CC1c1c(C(F)(F)F)sc2nc(Cc3cccc(C(F)(F)F)c3F)cc(=O)n12` (stereo not shown) [compound 94, 2-[7-[[2-fluoro-3-(trifluoromethyl)phenyl]methyl]-5-oxo-2-(trifluoromethyl)thiazolo[3,2-a]pyrimidin-3-yl]cyclopropanecarbonitrile], the EC50 worked out at 2080 nM.
As for `O=c1cc(Cn2nc(C(F)(F)F)cc2C2CC2)nc2sc3c(n12)C(CO)CC3` (stereo not shown) [compound 95], the 50% effective concentration (EC50) amounted to 9200 nM.
For the compound `CNC(=O)c1c(C)sc2nc(Cn3nc(C(F)(F)F)cc3Cl)cc(=O)n12` [compound 96, 7-[[5-chloro-3-(trifluoromethyl)pyrazol-1-yl]methyl]-N,2-dimethyl-5-oxo-thiazolo[3,2-a]pyrimidine-3-carboxamide], the EC50 was 1210 nM.
On to `CNC(=O)c1c(C)sc2nc(Cn3nc(Cl)cc3C(F)(F)F)cc(=O)n12` [compound 97, 7-[[3-chloro-5-(trifluoromethyl)pyrazol-1-yl]methyl]-N,2-dimethyl-5-oxo-thiazolo[3,2-a]pyrimidine-3-carboxamide], for which the concentration for a half-maximal effect (EC50) was 5110 nM.
Regarding `CNC(=O)Cc1c(C)sc2nc(Cn3nc(C(F)(F)F)cc3Cl)cc(=O)n12` [compound 98, 2-[7-[[5-chloro-3-(trifluoromethyl)pyrazol-1-yl]methyl]-2-methyl-5-oxo-thiazolo[3,2-a]pyrimidin-3-yl]-N-methyl-acetamide], the EC50 stood at 1570 nM.
Consider `CNC(=O)Cc1c(C)sc2nc(Cn3nc(Cl)cc3C(F)(F)F)cc(=O)n12` [compound 99, 2-[7-[[3-chloro-5-(trifluoromethyl)pyrazol-1-yl]methyl]-2-methyl-5-oxo-thiazolo[3,2-a]pyrimidin-3-yl]-N-methyl-acetamide], for which the EC50 came out at 3690 nM.
The same measure for `Cc1sc2nc(Cc3cccc(C(F)(F)F)c3F)cc(=O)n2c1C1CC1O` (stereo not shown) [compound 100, 7-[[2-fluoro-3-(trifluoromethyl)phenyl]methyl]-3-(2-hydroxycyclopropyl)-2-methyl-thiazolo[3,2-a]pyrimidin-5-one]: 11600 nM; for `Cc1sc2nc(Oc3cccc(C(F)(F)F)c3F)cc(=O)n2c1C1CC1C#N` (stereo not shown) [compound 101, 2-[7-[2-fluoro-3-(trifluoromethyl)phenoxy]-2-methyl-5-oxo-thiazolo[3,2-a]pyrimidin-3-yl]cyclopropanecarbonitrile]: 3710 nM.
Consider `Cc1sc2nc(Cn3nc(C(F)(F)F)cc3Cl)cc(=O)n2c1C1CC1CO` (stereo not shown) [compound 102, 7-[[5-chloro-3-(trifluoromethyl)pyrazol-1-yl]methyl]-3-[2-(hydroxymethyl)cyclopropyl]-2-methyl-thiazolo[3,2-a]pyrimidin-5-one], for which the 50% effective concentration (EC50) was determined as 54.7 nM.
For the compound `Cc1sc2nc(Cn3nc(Cl)cc3C(F)(F)F)cc(=O)n2c1C1CC1CO` (stereo not shown) [compound 103, 7-[[3-chloro-5-(trifluoromethyl)pyrazol-1-yl]methyl]-3-[2-(hydroxymethyl)cyclopropyl]-2-methyl-thiazolo[3,2-a]pyrimidin-5-one], the half-maximal effective concentration (EC50) stood at 251 nM.
Take `Cc1sc2nc(Cn3nc(C(F)(F)F)cc3Cl)cc(=O)n2c1C1CC1C#N` (stereo not shown) [compound 104, 2-[7-[[5-chloro-3-(trifluoromethyl)pyrazol-1-yl]methyl]-2-methyl-5-oxo-thiazolo[3,2-a]pyrimidin-3-yl]cyclopropanecarbonitrile]: the EC50 was 34.1 nM.
Consider `CCNC(=O)c1c(C#N)sc2nc(Cc3cccc(C(F)(F)F)c3F)cc(=O)n12` [compound 105, 2-Cyano-N-ethyl-7-[[2-fluoro-3-(trifluoromethyl)phenyl]methyl]-5-oxo-thiazolo[3,2-a]pyrimidine-3-carboxamide], for which the EC50 was 3900 nM.
As to `Cc1sc2nc(Cc3cccc(C(F)(F)F)c3F)cc(=O)n2c1C(=O)NC(C)C` [compound 106, 7-[[2-fluoro-3-(trifluoromethyl)phenyl]methyl]-N-isopropyl-2-methyl-5-oxo-thiazolo[3,2-a]pyrimidine-3-carboxamide], the EC50 was determined as 3400 nM.
The same measure for `Cc1sc2nc(Oc3cccc(C#N)c3F)cc(=O)n2c1C1CC1C` (stereo not shown) [compound 107, 2-fluoro-3-[2-methyl-3-(2-methylcyclopropyl)-5-oxo-thiazolo[3,2-a]pyrimidin-7-yl]oxy-benzonitrile]: 994 nM.
In the case of `Cc1sc2nc(Cn3nc(C(F)(F)F)cc3Cl)cc(=O)n2c1C(C)(C)O` [compound 108, 7-[[5-chloro-3-(trifluoromethyl)pyrazol-1-yl]methyl]-3-(1-hydroxy-1-methyl-ethyl)-2-methyl-thiazolo[3,2-a]pyrimidin-5-one], the concentration for a half-maximal effect (EC50) was found to be 247 nM.
For the compound `Cc1sc2nc(Cn3nc(Cl)cc3C(F)(F)F)cc(=O)n2c1C(C)(C)O` [compound 109, 7-[[3-chloro-5-(trifluoromethyl)pyrazol-1-yl]methyl]-3-(1-hydroxy-1-methyl-ethyl)-2-methyl-thiazolo[3,2-a]pyrimidin-5-one], the EC50 came to 734 nM.
Regarding `Cc1sc2nc(Cn3nc(C(F)(F)F)cc3Cl)cc(=O)n2c1C(C)O` (stereo not shown) [compound 110, 7-[[5-chloro-3-(trifluoromethyl)pyrazol-1-yl]methyl]-3-(1-hydroxyethyl)-2-methyl-thiazolo[3,2-a]pyrimidin-5-one], the EC50 amounted to 1880 nM.
As to `Cc1sc2nc(Cn3nc(Cl)cc3C(F)(F)F)cc(=O)n2c1C(C)O` (stereo not shown) [compound 111, 7-[[3-chloro-5-(trifluoromethyl)pyrazol-1-yl]methyl]-3-(1-hydroxyethyl)-2-methyl-thiazolo[3,2-a]pyrimidin-5-one], the EC50 is 6000 nM.
For `CCC(C)NC(=O)c1c(C)sc2nc(Cc3cccc(C(F)(F)F)c3F)cc(=O)n12` (stereo not shown) [compound 112, 7-[[2-fluoro-3-(trifluoromethyl)phenyl]methyl]-2-methyl-5-oxo-N-sec-butyl-thiazolo[3,2-a]pyrimidine-3-carboxamide], the EC50 was found to be 825 nM.
As to `Cc1sc2nc(Cc3cccc(C#N)c3F)cc(=O)n2c1N1CCC1` [compound 113, 3-[[3-(azetidin-1-yl)-2-methyl-5-oxo-thiazolo[3,2-a]pyrimidin-7-yl]methyl]-2-fluoro-benzonitrile], the EC50 came to 2370 nM.
`Cc1sc2nc(Cn3nc(C(F)(F)F)cc3Cl)cc(=O)n2c1C#N` [compound 114, 7-[[5-chloro-3-(trifluoromethyl)pyrazol-1-yl]methyl]-2-methyl-5-oxo-thiazolo[3,2-a]pyrimidine-3-carbonitrile]: the EC50 was determined as 1340 nM.
For the compound `Cc1sc2nc(Cn3nc(Cl)cc3C(F)(F)F)cc(=O)n2c1C#N` [compound 115, 7-[[3-chloro-5-(trifluoromethyl)pyrazol-1-yl]methyl]-2-methyl-5-oxo-thiazolo[3,2-a]pyrimidine-3-carbonitrile], the concentration for a half-maximal effect (EC50) was 2750 nM.
